From PubChem BioAssay AID1919003 (Molecular Pharmacology Branch, DTP, NCI, 2023)
Several values for one entry are separate records, joined by “and”; a condition that tells them apart may be missing. Equal entries are not always repeated.

Test system: 786-0 complex spheroids with HUVEC/MSC, growth % test/control
Assay: Anticancer human tumor 786-0 cell line growth inhibition [AhR];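 also: compound exposure lasted seven days before the read-out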
Conditions: for viability, T/C: stronger effect = lower value
From the text: Multicellular complex tumor spheroid response to aryl hydrocarbon receptor antagonists in combination with a variety of drugs and investigational agents in selected tumor cell lines
The current study was undertaken to assess response to aryl hydrocarbon receptor antagonists in combination with standard-of-care drugs and investigational agents in solid tumor complex spheroid models. Complex spheroids include a stromal component modeled by human endothelial cells (HUVEC) and fibroblasts modeled by human mesenchymal stem cells (MSCs). The concentration ranges selected for each drug and investigational agent were based upon clinically achievable concentrations if the clinical Cmax of the agent was known.
Compounds. The drugs and investigational agents: BAY 2416964 (NSC825713), GNF351 (NSC835774), CH-223191 (NSC835775), CPI-455 (NSC825282), aza-TdCyd (NSC777586), decitabine (NSC127716), belinostat (NSC758774), entinostat (NSC756642), pevonedistat (NSC761192), tazemetostat (NSC777109), talazoparib (NSC765396), olaparib (NSC753686), selinexor (NSC780203), nedisertib (M3814, NSC802822), bortezomib (NSC756655), venetoclax (NSC766270), doxorubicin (NSC123127), elimusertib (BAY189344, NSC800525), ceralasertib (AZD6738, NSC777638), TAK-243 (NSC785004), alisertib (NSC759677), etoposide (NSC141540), topotecan (NSC609699), eribulin (NSC707389), gemcitabine (NSC613327), carboplatin (NSC241240), cisplatin (NSC119875), and SN-38 (NSC673596) were obtained from the National Cancer Institute (NCI) Developmental Therapeutics Program Chemical Repository (32). The FDA-approved anticancer drug set is available from the Developmental Therapeutics Program at https://dtp.cancer.gov/organization/dscb/obtaining/available plates.htm. […] The stock solutions were prepared in dimethyl sulfoxide (DMSO, Sigma-Aldrich, St. Louis, MO, cat. D2650), except for the platinum compounds which were prepared in saline (Quality Biological, Gaithersburg, MD, cat. 114-055-101), at 800-fold the tested concentration and stored at -70 degrees C prior to their use. All drugs and investigational agents were tested over a range starting from a high concentration at or near the clinical Cmax and decreasing in half-log increments. If the clinical Cmax for an agent had not been determined, the highest concentration tested was 10 microM (Table 1).
Cell Culture. All cells were maintained in an incubator at 37 degrees C and 5% CO2 with 95% humidity. The PDC lines were cultured according to standard operating procedures established by the NCI PDMR (https://pdmr.cancer.gov). Briefly, all PDCs were thawed and cultured in Matrigel-coated flasks prepared with a working solution of 1X Ham's F-12 nutrient mix, without supplementation (Invitrogen, Waltham, MA, cat. 11765054), 100 U/mL penicillin-streptomycin (Invitrogen, cat. 15140122), and 2.5% Matrigel (Corning Inc., Corning, NY, cat. 354248) for the first three passages. All PDCs were cultured in complete DMEM/F-12 media containing advanced DMEM/F-12 (Invitrogen, cat. 12634028), 4.9% defined fetal bovine serum, heat inactivated (HyClone Laboratories Inc., Logan, UT, cat. SH30070.03HI), 389 ng/mL hydrocortisone (Sigma-Aldrich, cat. H4001), 9.7 ng/mL human EGF recombinant protein (Invitrogen, cat. PHG0313), 23.4 microg/mL adenine (Sigma-Aldrich, cat. A2786), 97.3 U/mL penicillin-streptomycin (Invitrogen, cat. 15140122), 1.9 mM L-glutamine (Invitrogen, cat. 25030081), and 9.7 microM Y-27632 dihydrochloride (Tocris Bioscience, Bristol, United Kingdom, cat. 1254). The PDCs were cultured in complete DMEM/F12 media without 10 microM Y-27632 dihydrochloride for at least two passages prior to the screen. The established cell lines NCI-H1341 and […] were cultured in DMEM/F-12, HEPES (Invitrogen, cat. 11330032), 5% defined fetal bovine serum (HyClone Laboratories Inc., cat. SH30070.03), ITS premix universal culture supplement [insulin (5 microg/mL), transferrin (5 microg/mL), and selenious acid (5 ng/mL)] […]

[1] = curve of first compound, second compound 0.1 µM
[2] = curve of first compound, second compound 0.316 µM
[3] = curve of first compound, second compound 1 µM
[4] = curve of first compound, second compound 3.16 µM
[5] = curve of first compound, second compound 10 µM
[6] = second compound 0.1 µM, first compound 0.0316 µM
[7] = second compound 0.1 µM, first compound 0.1 µM
[8] = second compound 0.1 µM, first compound 0.316 µM
[9] = second compound 0.1 µM, first compound 1 µM
[10] = second compound 0.316 µM, first compound 0.0316 µM
[11] = second compound 0.316 µM, first compound 0.1 µM
[12] = second compound 0.316 µM, first compound 0.316 µM
[13] = second compound 0.316 µM, first compound 1 µM
[14] = second compound 1 µM, first compound 0.0316 µM
[15] = second compound 1 µM, first compound 0.1 µM
[16] = second compound 1 µM, first compound 0.316 µM
[17] = second compound 1 µM, first compound 1 µM
[18] = second compound 3.16 µM, first compound 0.0316 µM
[19] = second compound 3.16 µM, first compound 0.1 µM
[20] = second compound 3.16 µM, first compound 0.316 µM
[21] = second compound 3.16 µM, first compound 1 µM
[22] = second compound 10 µM, first compound 0.0316 µM
[23] = second compound 10 µM, first compound 0.1 µM
[24] = second compound 10 µM, first compound 0.316 µM
[25] = second compound 10 µM, first compound 1 µM

COc1cc(Nc2ncc3c(n2)-c2ccc(Cl)cc2C(c2c(F)cccc2OC)=NC3)ccc1C(=O)O
viability, T/C (compound 0.0316 µM): 94.7% and 108% and 91.5%
viability, T/C (compound 0.1 µM): 96% and 110% and 93.9%
viability, T/C (compound 0.316 µM): 98% and 122% and 107%
viability, T/C (compound 1 µM): 78.9% and 92.7% and 79.7%
viability, T/C (compound 3.16 µM): 50.9% and 63.2% and 48.5%
viability, T/C (compound 10 µM): 27.6% and 35% and 28.7%
IC50 (curve of compound): 3.17 µM and 5.26 µM and 2.87 µM

O=C(C=Cc1cccc(S(=O)(=O)Nc2ccccc2)c1)NO + CC(CO)NC(=O)c1cc(-c2ccc(Cl)cc2)nn(-c2cnn(C)c2)c1=O
IC50 [1]: 6.02 µM
IC50 [2]: 5.21 µM
IC50 [3]: 5.51 µM
IC50 [4]: 4.85 µM
IC50 [5]: 4.71 µM
viability, T/C [6]: 102%
viability, T/C [7]: 106%
viability, T/C [8]: 97.2%
viability, T/C [9]: 107%
viability, T/C (second compound 0.1 µM, first compound 3.16 µM): 93.8%
viability, T/C (second compound 0.1 µM, first compound 10 µM): 15.2%
viability, T/C [10]: 104%
viability, T/C [11]: 101%
viability, T/C [12]: 111%
viability, T/C [13]: 110%
viability, T/C (second compound 0.316 µM, first compound 3.16 µM): 79%
viability, T/C (second compound 0.316 µM, first compound 10 µM): 12%
viability, T/C [14]: 100%
viability, T/C [15]: 104%
viability, T/C [16]: 104%
viability, T/C [17]: 105%
viability, T/C (second compound 1 µM, first compound 3.16 µM): 84.7%
viability, T/C (second compound 1 µM, first compound 10 µM): 12.5%
viability, T/C [18]: 103%
viability, T/C [19]: 102%
viability, T/C [20]: 103%
viability, T/C [21]: 101%
viability, T/C (second compound 3.16 µM, first compound 3.16 µM): 73.6%
viability, T/C (second compound 3.16 µM, first compound 10 µM): 10%
viability, T/C [22]: 109%
viability, T/C [23]: 108%
viability, T/C [24]: 106%
viability, T/C [25]: 94.8%
viability, T/C (second compound 10 µM, first compound 3.16 µM): 72.6%
viability, T/C (second compound 10 µM, first compound 10 µM): 8.46%

NS(=O)(=O)OCC1CC(n2ccc3c(NC4CCc5ccccc54)ncnc32)CC1O (centres undefined)
viability, T/C (compound 0.0316 µM): 86.6% and 84.8% and 82.7%
viability, T/C (compound 0.1 µM): 82.9% and 78.3% and 70.6%
viability, T/C (compound 0.316 µM): 65.9% and 65% and 60.3%
viability, T/C (compound 1 µM): 28.2% and 41.9% and 20.8%
viability, T/C (compound 3.16 µM): 5.17% and 8.09% and 3.13%
viability, T/C (compound 10 µM): 3.31% and 4.15% and 1.12%
IC50 (curve of compound): 0.512 µM and 0.63 µM and 0.411 µM

Nc1ncn(C2CC(O)C(CO)O2)c(=O)n1 (centres undefined) + Cc1cncc(-c2nc(NCCc3c[nH]c4ccccc34)c3ncn(C(C)C)c3n2)c1
IC50 [1]: > 1 µM
IC50 [2]: > 1 µM
IC50 [3]: > 1 µM
IC50 [4]: > 1 µM
IC50 [5]: < 0.00316 µM
viability, T/C (second compound 0.1 µM, first compound 0.00316 µM): 123%
viability, T/C (second compound 0.1 µM, first compound 0.01 µM): 115%
viability, T/C [6]: 118%
viability, T/C [7]: 115%
viability, T/C [8]: 106%
viability, T/C [9]: 95.8%
viability, T/C (second compound 0.316 µM, first compound 0.00316 µM): 116%
viability, T/C (second compound 0.316 µM, first compound 0.01 µM): 128%
viability, T/C [10]: 117%
viability, T/C [11]: 127%
viability, T/C [12]: 113%
viability, T/C [13]: 103%
viability, T/C (second compound 1 µM, first compound 0.00316 µM): 124%
viability, T/C (second compound 1 µM, first compound 0.01 µM): 116%
viability, T/C [14]: 123%
viability, T/C [15]: 112%
viability, T/C [16]: 99%
viability, T/C [17]: 96.9%
viability, T/C (second compound 3.16 µM, first compound 0.00316 µM): 77.5%
viability, T/C (second compound 3.16 µM, first compound 0.01 µM): 80.4%
viability, T/C [18]: 78.5%
viability, T/C [19]: 90.4%
viability, T/C [20]: 85.4%
viability, T/C [21]: 76.2%
viability, T/C (second compound 10 µM, first compound 0.00316 µM): 8.18%
viability, T/C (second compound 10 µM, first compound 0.01 µM): 13.5%
viability, T/C [22]: 11.1%
viability, T/C [23]: 9.3%
viability, T/C [24]: 8.63%
viability, T/C [25]: 10.9%
